Measured values published in paper PMC11091117, “A fluorescently-tagged tick kinin neuropeptide triggers peristalsis and labels tick midgut muscles” (Scientific Reports, 2024).
“Also recorded” adds a separate entry of the source.

Tests used:
[1] = test system: tick kinin receptor (recombinant R. microplus receptor, CHO-K1 BMLK3 cells); experiment: Cellular end-point fluorescence calcium mobilization assay, BMLK3 cells; assay type: cell-based, Rhipicephalus microplus
Text: Three peptides were used in this study. These included: 1) the ligand for the endogenous tick kinin receptor from Rhipicephalus sanguineus, Rhisa-kinin 8 peptide of sequence GTGEDQAFSPWGamide (Rhisa-K-8; RK8; of identical sequence to Rhimi-K-8 in Rhipicephalus microplus)[48], 2) the same peptide but fluorescently labeled at the N-terminus with tetramethylrhodamine (TMR) a red fluorescent dye, designated TMR-Rhisa-K-8 (TMR-RK8), and 3) a labeled peptide synthesized with the scrambled sequence of the kinin ligand, designated TMR-Scrambled. The sequence of TMR-RK8 was TMR-C-GTGEDQAFSPWGamide). The TMR-Scrambled kinin (TMR-C-GTQWGPGFEADSamide) served as a negative control for tissue labeling. All peptides were custom-synthesized and purchased from GenScript (Piscataway, NJ, USA) with a purity of ≥ 95% and the cysteine in bold in both sequences was added to attach the label. Experiments were replicated with independently synthesized batches (4 mg each) of labeled and unlabeled peptides, for reproducibility. Unlabeled RK8 was used as a competitive ligand to verify target-specific binding of the labeled TMR-RK8 (see Ligand Competition Assay). For cell assays, the peptide stock solutions (100 µM) were made in 1% dimethyl sulfoxide (DMSO) in Hank’s balanced salt solution (HBSS, Thermo Fisher, Waltham, USA). For fluorescent cell labeling, peptide working solutions (10 µM) were prepared in HBSS from stock solutions. For assays on the midgut, peptides were solubilized and diluted in a tick physiological saline consisting of 140 mM NaCl, 5 mM KCl, 1 mM MgCl2, 5 mM CaCl2, 4 mM NaHCO3, and 5 mM HEPES, pH 7.2[49].
The tick kinin receptor is stably expressed in the recombinant CHO-K1 cell line designated BMLK3 (Boophilus microplus leucokinin receptor 3) that was constructed and selected as described by Holmes, et al.[47]. The CHO-K1 cells had been obtained from the American Type Culture Collection (ATCC) for transfection with the expression construct. This cell line has been kept in the laboratory since 2003. Cells that were transfected only with an empty plasmid are referred to as “vector-only” (V/O) cells and were used as a negative control. Before all experiments, the BMLK3 cell line or V/O cells were separately cultured in T-75 flasks with selective medium (F-12 K medium containing 10% FBS and 800 μgmL^−1 of G418 sulfate) for one to two passages in a humidified incubator at 37 °C and 5% CO2.
A fluorescence-based intracellular calcium mobilization end-point assay described by Xiong, et al.[50] was used to confirm the activity of the TMR-labeled RK8 peptide on a cell line expressing the tick kinin receptor. For this, BMLK3 and V/O cells were cultured in F-12 K medium (1% FBS and 400 μgmL^−1- of G418 Sulfate). The cells were seeded in a 96-well plate with 20,000 cells per well and incubated overnight at 37 °C and 5% CO2. The next morning, cells were prepared for the assay following the manufacturer’s instructions for the Fluo-8 Calcium Flux Assay Kit – NoWash (Abcam, Cambridge, United Kingdom). The F-12 K medium in the plate was removed by inverting the plate and gently blotting on paper towels. […] The calcium fluorescence signal was detected by a CLARIOstar (BMG LABTECH, Chicago, IL, United States) plate reader set to read at the fluorescence plate-mode with excitation and emission wavelengths of 490 and 525 nm at 29 °C. Calcium responses were read immediately after the addition of 10 µL of either TMR-RK8, unlabeled RK8, or blank solvent (1% DMSO in HBSS). […]

[2] = test system: vector-only (V/O) CHO-K1 cells; experiment: Confocal visualization on live vector-only cells with fluorescently labeled kinin peptide; assay type: binding; details: 10 µM labeled peptide, 1 min, HBSS, confocal Leica SP8
Text: (§1) Three peptides were used in this study. These included: 1) the ligand for the endogenous tick kinin receptor from Rhipicephalus sanguineus, Rhisa-kinin 8 peptide of sequence GTGEDQAFSPWGamide (Rhisa-K-8; RK8; of identical sequence to Rhimi-K-8 in Rhipicephalus microplus)[48], 2) the same peptide but fluorescently labeled at the N-terminus with tetramethylrhodamine (TMR) a red fluorescent dye, designated TMR-Rhisa-K-8 (TMR-RK8), and 3) a labeled peptide synthesized with the scrambled sequence of the kinin ligand, designated TMR-Scrambled. The sequence of TMR-RK8 was TMR-C-GTGEDQAFSPWGamide). The TMR-Scrambled kinin (TMR-C-GTQWGPGFEADSamide) served as a negative control for tissue labeling. […]
(§2) The BMLK3 and V/O cells (5000–10,000 cells) were seeded separately in 200 µL selective media onto the two chambers of the cover glass (Lab-Tek Chambered Coverglass, 4.2 cm^2 area, #1.0 German borosilicate glass, sterile, Cat # 155,380, Thermo Fisher Scientific Inc., Walthams, MA) and grown in the incubator overnight at 37 °C and 5% CO2. The next day, cells would be ready for fluorescent labeling: the selective media was replaced with 200 µL HBSS to rinse the cells. […] Images were analyzed and computer-colored using Fiji/ImageJ (National Institutes of Health, Bethesda, MD). […]

[3] = test system: tick kinin receptor (recombinant R. microplus receptor, CHO-K1 BMLK3 cells); experiment: Confocal visualization of recombinant kinin receptor on live BMLK3 cells with fluorescently labeled kinin peptide; assay type: binding, Rhipicephalus microplus
Text: as §1, §2

TMR-C-GTGEDQAFSPWGamide [TMR-RK8] was tested, and the “intracellular calcium fluorescence response / receptor activation (in words)” value ([1]; 10 nM to 10 μM (four concentrations), 1% DMSO in HBSS, Fluo-8, Ex 490/Em 525 nm, 29 °C, read 60 s at 1 s intervals, average raw fluorescence units of 4 technical replicates, simple linear regression) was “activated and labeled the recombinant R. microplus receptor expressed in CHO-K1 cells; also recorded: elicited a dose-dependent intracellular calcium fluorescence response; also recorded: functionally activates the tick recombinant kinin receptor in BMLK3 cells; also recorded: activated the receptor in a dose response fashion, similarly to the unlabeled RK8 peptide”, the “fluorescence units at highest concentration, TMR-RK8 compared with RK8 (in words)” value ([1]; highest concentration assayed 10 µM, Fluo-8, 4 technical replicates) was “maximal and similar for the highest concentration assayed of 10 µM” and the “effect of TMR label on peptide bioactivity (in words)” value ([1]; overlap of confidence intervals of cell responses to TMR-RK8 and RK8) was “the TMR fluorescent label did not impair peptide bioactivity”. The “labeling of vector-only cells (in words)” value [2] was “not labeled by either peptide”, the “labeling of BMLK3 cells, Fig. S2 (in words)” value ([3]; 1 µM TMR-RK8, confocal Leica SP8 with DIC, 1.1 µm Z-step, 13 slices) was “observed in most cells” and the “labeling of BMLK3 cells (in words)” value ([3]; live BMLK3 cells, 10 µM labeled peptide, 1 min, HBSS, confocal Leica SP8, Ex 542 nm, Em 572–759 nm) was “showed specific labeling; also recorded: observed only in BMLK3 cells”.
